Laboratory results from article PMC8289188, “Polyoxometalates as Effective Nano-inhibitors of Amyloid Aggregation of Pro-inflammatory S100A9 Protein Involved in Neurodegenerative Diseases” (ACS Applied Materials & Interfaces, 2021).
Read-outs that look alike come from different tables or passages of the source.

Tests used:
S100A9 [1] = target: T1, S100A9 (Homo sapiens, UniProt P06702); assay: intrinsic Trp88 fluorescence titration; ANS fluorescence titration gave Kd […]; ThT/AFM amyloid inhibition; format: binding
T1 construct: native S100A9 expressed in Escherichia coli
T1 sequence (P06702 1-114): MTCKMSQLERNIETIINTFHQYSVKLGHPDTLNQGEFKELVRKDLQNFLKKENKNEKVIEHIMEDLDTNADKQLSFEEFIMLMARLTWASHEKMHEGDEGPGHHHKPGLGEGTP

S100A9 [2] = target: T1, S100A9; assay: as above; format: binding; remark: listed apart in the source

Substance | Kd (S100A9 [1]) | Kd (S100A9 [2])
Nb10 | 2860 ± 390 nM | 
TiNb9 |  | 2480 ± 200 nM
